# Test results from PMC10321319 (Nature, 2022).
# Where two headings read alike, the source gives them in different places. Positions of bridges follow the written chain, without caps; N, C: chain ends. Non-standard residues stand in square brackets, D forms with d. Residues, ends and D or L forms follow the SMILES beside them. *: point of attachment. Nonanoyl = CCCCCCCCC(=O)*; X1 = CC[C@H](C)CCCCC(=O)*; dDab = NCC[C@@H](N)C(=O)O; Octanoyl = CCCCCCCC(=O)*; Dab = NCC[C@H](N)C(=O)O
# Tests used:
# [1] = test system: K. pneumoniae ATCC13883 (pMQ124-mcr-1); details: for Fold increase in MIC: K. pneumoniae 13883 upon introduction of mcr-1; for MIC: n=2
# [2] = test system: E. cloacae ATCC13047 (ΔphoP/Q+phoP/Q); details: for Fold increase in MIC: E. cloacae ATCC13047 upon introduction of phoP/Q; for MIC: n=2; for susceptibility of strain: E. cloacae phoP/Q deletion rescued with phoP/Q plasmid
# [3] = test system: E. cloacae ATCC13047 (ΔphoP/Q); details: n=2
# [4] = test system: K. pneumoniae 0497 (mcr-1); details: n=2
# [5] = test system: A. baumannii SM1536 (pMQ124xlab1-mcr-1); assay: MIC, microbial susceptibility assay; type: cell-based, Acinetobacter baumannii; details: for Fold increase in MIC: A. baumannii SM1536 upon introduction of mcr-1; for MIC: A. baumannii SM1536 (pMQ124xlab1-mcr-1), n=2
# [6] = test system: A. baumannii 0301 (mcr-1); assay: MIC, microbial susceptibility assay; type: cell-based, Acinetobacter baumannii; details: for Fold increase in MIC: A. baumannii 0301 upon introduction of mcr-1
# [7] = test system: E. faecium Com15; assay: MIC, microbial susceptibility assay; type: cell-based; details: n=2
# [8] = test system: A. baumannii-0301-mcr-1; assay: Neutropenic thigh infection model; type: in vivo, Acinetobacter baumannii; details: neutropenic mice, 20 mg/kg subcutaneous, 24 h
# [9] = test system: E. cloacae 0150; assay: MIC, microbial susceptibility assay; type: cell-based, Enterobacter cloacae; details: n=2
# [10] = test system: S. aureus SH1000; assay: MIC, microbial susceptibility assay; type: cell-based; details: n=2
# [11] = test system: pairs of colistin sensitive and resistant strains of K. pneumoniae and A. baumannii (mcr-1 plasmid); type: cell-based
# [12] = test system: A. baumannii-SM1536-mcr-1; assay: Neutropenic thigh infection model; type: in vivo, Acinetobacter baumannii; details: neutropenic mice, 20 mg/kg subcutaneous, 24 h
# [13] = Pharmacokinetics assessment, plasma; type: in vivo; details: mice, single subcutaneous dose 10 mg/kg
# [14] = test system: A. baumannii ATCC17978 (pMQ124xlab1-mcr-1); assay: MIC, microbial susceptibility assay; type: cell-based, Acinetobacter baumannii; details: n=2
# [15] = test system: A. baumannii 0295 (mcr-1 +); assay: MIC, microbial susceptibility assay; type: cell-based, Acinetobacter baumannii; details: XDR A. baumannii 0295, mcr-1 +
# [16] = test system: A. baumannii 0295; assay: MIC, microbial susceptibility assay; type: cell-based, Acinetobacter baumannii; details: XDR A. baumannii 0295, mcr-1 −
# [17] = test system: P. vulgaris 49132; details: Proteus vulgaris, intrinsically colistin resistant (L-Ara4N)
# [18] = test system: A. baumannii 0296; assay: MIC, microbial susceptibility assay; type: cell-based, Acinetobacter baumannii; details: XDR A. baumannii 0296, mcr-1 −
# [19] = test system: P. aeruginosa PA01; assay: MIC, microbial susceptibility assay; type: cell-based, Pseudomonas aeruginosa; details: n=2
# [20] = test system: A. baumannii 0287 (mcr-1 +); assay: MIC, microbial susceptibility assay; type: cell-based, Acinetobacter baumannii; details: XDR A. baumannii 0287, mcr-1 +
# [21] = test system: N. gonorrhoeae 49226
# [22] = test system: M. osloensis 10973; details: eptA intrinsic resistance
# [23] = test system: A. baumannii SM1536
# [24] = test system: K. pneumoniae 10031; details: n=2
# [25] = test system: A. baumannii 0287; assay: MIC, microbial susceptibility assay; type: cell-based, Acinetobacter baumannii; details: XDR A. baumannii 0287, mcr-1 −
# [26] = test system: A. baumannii 0301; details: lipid analog table
# [27] = test system: A. baumannii 0282; assay: MIC, microbial susceptibility assay; type: cell-based, Acinetobacter baumannii; details: XDR A. baumannii 0282, mcr-1 −
# [28] = test system: A. baumannii ATCC17978; assay: MIC, microbial susceptibility assay; type: cell-based, Acinetobacter baumannii; details: n=2
# [29] = test system: S. typhimurium 0635 (mcr-1); assay: MIC, microbial susceptibility assay; type: cell-based; details: S. typhimurium 0635, mcr-1 clinical isolate; n=2
# [30] = test system: A. baumannii ATCC17978; assay: CHIR-090 inhibition assay, growth curves; type: cell-based, Acinetobacter baumannii
# [31] = test system: N. meningitidis 13090; details: eptA intrinsic resistance
# [32] = test system: A. baumannii 0286; assay: MIC, microbial susceptibility assay; type: cell-based, Acinetobacter baumannii; details: XDR A. baumannii 0286, mcr-1 −
# [33] = test system: K. pneumoniae ATCC13883; details: n=2
# [34] = test system: HT29 cells; assay: MTT cytotoxicity assay; type: cell-based, human; details: 48 h incubation
# [35] = K. pneumoniae 0497, mcr-1 clinical isolate
# [36] = K. pneumoniae ATCC13883 (pMQ124-mcr-1)
# [37] = E. cloacae ATCC13047 (ΔphoP/Q+phoP/Q)
# [38] = A. baumannii 17978, ESKAPE panel
# [39] = A. baumannii ATCC17978, mcr-1 engineered pairs
compound,measurement,setting,value
CC[C@H](C)CCCCC(=O)N[C@@H](CCN)C(=O)N[C@H](C(=O)N[C@H](CCN)C(=O)N[C@H]1CCNC(=O)[C@H](CC(C)C)NC(=O)[C@H](CCN)NC(=O)[C@H](CCN)NC(=O)[C@H]([C@@H](C)CC)NC(=O)[C@@H](CC(C)C)NC(=O)[C@H](CCN)NC1=O)[C@@H](C)O [Macolacin-3Dab] (X1-[Dab]T[dDab][Dab][Dab][dL]I[Dab][Dab]L; lactam 4-C),Fold increase in MIC,[1],8
same,Fold increase in MIC,[2],4
CC[C@H](C)CCCCC(=O)N[C@@H](CCN)C(=O)N[C@H](C(=O)N[C@H](CO)C(=O)N[C@H]1CCNC(=O)[C@H]([C@@H](C)O)NC(=O)[C@H](CCN)NC(=O)[C@H](CCN)NC(=O)[C@H]([C@@H](C)CC)NC(=O)[C@@H](CC(C)C)NC(=O)[C@H](CCN)NC1=O)[C@@H](C)O [Macolacin-10Thr] (X1-[Dab]T[dS][Dab][Dab][dL]I[Dab][Dab]T; lactam 4-C),MIC,"[3]; E. cloacae ATCC13047 (Δ phoP/Q), SAR table",1 µg/mL
same,MIC,"[4]; K. pneumoniae 0497 (mcr-1), SAR table",8 µg/mL
same,MIC,"[1]; K. pneumoniae 13883 (mcr-1), SAR table",64 µg/mL
same,Fold increase in MIC,[1],64
same,MIC,"[2]; E. cloacae ATCC13047 (Δ phoP/Q+phoP/Q), SAR table",16 µg/mL
same,Fold increase in MIC,[2],16
CCCCCCCC(=O)N[C@@H](CCN)C(=O)N[C@H](C(=O)N[C@H](CO)C(=O)N[C@H]1CCNC(=O)[C@H](CC(C)C)NC(=O)[C@H](CCN)NC(=O)[C@H](CCN)NC(=O)[C@H]([C@@H](C)CC)NC(=O)[C@@H](CC(C)C)NC(=O)[C@H](CCN)NC1=O)[C@@H](C)O [L2] (Octanoyl-[Dab]T[dS][Dab][Dab][dL]I[Dab][Dab]L; lactam 4-C; N-terminus assumed),Fold increase in MIC,[5],8
same,Fold increase in MIC,[6],2
colistin,MIC,[7],>128 µg/mL
same,bacterial burden in thigh relative to initial infection,[8],did not reduce the bacterial burden below the level of the initial infection
same,MIC,[9],1 µg/mL
same,MIC,[10],>128 µg/mL
same,increase in MIC upon mcr-1 expression,[11],≥ 32 fold
same,bacterial burden in thigh relative to initial infection,[12],did not reduce the bacterial burden below the level of the initial infection
same,plasma drug exposure (pharmacokinetic profile),[13],parity in plasma drug exposure
same,MIC,[3]; E. cloacae ATCC13047 (ΔphoP/Q),1 µg/mL
same,MIC,[14],32 µg/mL
same,MIC,[4]; [35],32 µg/mL
same,MIC,[15],>128 µg/mL
same,MIC,[16],0.25 µg/mL
same,Fold increase in MIC,[1],64
same,MIC,[1]; [36],64 µg/mL
same,MIC,[17],> 128 µg/mL
same,MIC,[18],0.25 µg/mL
same,MIC,[19],1 µg/mL
same,MIC,[20],64 µg/mL
same,MIC,[2]; [37],32 µg/mL
same,Fold increase in MIC,[2],32
same,susceptibility of strain,[2],resistant
same,MIC,[5],128 µg/mL
same,Fold increase in MIC,[5],256
same,MIC,[21],>128 µg/mL
same,MIC,[22],8 µg/mL
same,MIC,[23]; lipid analog table,0.5 µg/mL
same,MIC,[23]; n=2,0.5 µg/mL
same,MIC,[24],0.5 µg/mL
same,MIC,[25],0.5 µg/mL
same,MIC,[26],0.25 µg/mL
same,MIC,[27],0.5 µg/mL
same,MIC,[28]; [38],1 µg/mL
same,MIC,[28]; [39],1 µg/mL
same,MIC,[29],16 µg/mL
same,A. baumannii growth with antibiotic plus CHIR-090,"[30]; antibiotic at 10x MIC with LpxC inhibitor CHIR-090, 48 h",rescued A. baumannii growth
same,A. baumannii growth with antibiotic alone,"[30]; concentrations above MIC (10x MIC), 48 h",completely abrogated A. baumannii growth
same,MIC,[31],128 µg/mL
same,MIC,[32],1 µg/mL
same,MIC,"[6]; A. baumannii 0301 (mcr-1), lipid analog table",>128 µg/mL
same,Fold increase in MIC,[6],>512
same,MIC,[6]; A. baumannii-0301 transformed with mcr-1 (PDR strain),> 64 µg/mL
same,MIC,[33],1 µg/mL
same,"cytotoxicity to human cells, IC50",[34],> 512 µg/mL
Polymyxin B,MIC,[7],>128 µg/mL
same,MIC,[9],1 µg/mL
same,MIC,[10],>128 µg/mL
same,increase in MIC upon mcr-1 expression,[11],≥ 32 fold
same,MIC,[3]; E. cloacae ATCC13047 (ΔphoP/Q),1 µg/mL
same,MIC,[14],16 µg/mL
same,MIC,[4]; [35],32 µg/mL
same,Fold increase in MIC,[1],128
same,MIC,[1]; [36],128 µg/mL
same,MIC,[17],> 128 µg/mL
same,MIC,[19],2 µg/mL
same,MIC,[2]; [37],32 µg/mL
same,Fold increase in MIC,[2],32
same,susceptibility of strain,[2],resistant
same,MIC,[5],128 µg/mL
same,MIC,[23]; n=2,1 µg/mL
same,MIC,[24],1 µg/mL
same,MIC,[28]; [38],0.5 µg/mL
same,MIC,[28]; [39],0.5 µg/mL
same,MIC,[29],16 µg/mL
same,MIC,[33],1 µg/mL
CCCCCCCCC(=O)N[C@@H](CCN)C(=O)N[C@H](C(=O)N[C@H](CO)C(=O)N[C@H]1CCNC(=O)[C@H](CC(C)C)NC(=O)[C@H](CCN)NC(=O)[C@H](CCN)NC(=O)[C@H]([C@@H](C)CC)NC(=O)[C@@H](CC(C)C)NC(=O)[C@H](CCN)NC1=O)[C@@H](C)O [L3] (Nonanoyl-[Dab]T[dS][Dab][Dab][dL]I[Dab][Dab]L; lactam 4-C; N-terminus assumed),Fold increase in MIC,[5],4
same,Fold increase in MIC,[6],2
C[C@@H](O)[C@H](NC(=O)c1ccc(C#Cc2ccc(CN3CCOCC3)cc2)cc1)C(=O)NO [CHIR-090],A. baumannii growth with CHIR-090 alone,[30]; 48 h growth curve,does not inhibit A. baumannii growth
